These results are taken from US20250268873A1, “COMBINATION OF DUAL ATM AND DNA-PK INHIBITORS AND IMMUNOTHERAPEUTIC AGENTS FOR USE IN CANCER THERAPY” (XRAD THERAPEUTICS, INC., priority 2021, published 2025).

One assay relates to TBK1. Kind of assay: Immunoblot of TBK1 phosphorylation in HCT116 cells. The format is cell-based, human. The note with it: HCT116 p53 wild-type and p53−/− cells; 1 μM single agents, combination 0.5 or 1 micromolar each. From the text:
Antibodies recognizing phosphorylated/activated ATM (S1981, #ab81292) and DNA-PKcs (S2056, #ab18192) were purchased from Abcam Biotechnology (Cambridge, MA). Antibodies to ATM (#A1106) and DNA-PKcs (#ab1832) were from Sigma and Abcam, respectively. Phospho-KAP1 (S824, #A300-767A) and KAP1 (A700-014) antibodies were from Bethyl Labs (Montgomery, TX). Phospho-TBK1 (#5483), cGAS (#15102), and pSTING (S366, #19781S) antibodies were from Cell Signaling Technology (CST) (Danvers, MA). STING (PA5-23381) antibodies were from ThermoFisher Scientific (Waltham, MA), and actin (#A5316) antibodies were from Sigma. All antibodies were diluted 1:1000 with the exception of actin which was diluted 1:3000 in 1×TBST (1×TBS-10×TBS, (Corning, 46-012-CM), 0.05% Tween-20 (P7949) Sigma and 1% BSA. Secondary antibodies used were (a) Li-Cor method-Goat anti-Rabbit (926-3221) and Goat anti-Mouse (926-68020) Li-Cor (b) ECL method: Anti-rabbit IgG, HRP-linked (#7074S), CST.
Cells were pretreated with Compound 569 at 20, 100, 500, or 1000 nM or DMSO for 30 min and then irradiated with 0 or 10 Gy (XRAD 160, Precision X Ray) as shown in FIG. 1. In FIG. 3, cells were pretreated with Compound 569 at 1 μM, ATMi (AZD0156) at 1 μM, DNA-PKi (peposertib) at 1 μM as single agents or DMSO or with ATMi and DNA-PKi in combination at 0.5 micromolar each or at 1 micromolar each for 30 min and then irradiated with 0 or 10 Gy (XRAD 160, Precision X Ray) as shown in FIG. 1. One hour after IR, cells were lysed in RIPA buffer ([…], pH 8.0, 150 mM NaCl, 0.1% SDS, 0.5% sodium deoxycholate, 1% IGEPAL® CA-630 (Sigma, 18896) for 20 min at 4° C. in the presence of protease and phosphatase inhibitor cocktails (Roche, #04693159001 & #04906837001). Cell lysates were centrifuged at 13,200 g for 10 min at 4° C. and supernatants were analyzed for protein content using BCA assay (Pierce™ BCA Protein Assay Kit, cat #23227, ThermoFisher Waltham, MA 02451) and equal amounts of protein/lane were used for subsequent immunoblot analyses. Proteins were denatured by adding NuPAGE LSD Sample Buffer [4×] […]
Background: In western blotting, separated proteins are transferred to a membrane and probed.

For another assay, the target named is DNA-PK (Homo sapiens (Human), UniProt P78527). The experiment in a line: Pharmacodynamic assay, pDNA-PK/DNA-PK in MDA-231 tumors. The format is in vivo. The method, then:
FADU or MDA-MB-231 cells were harvested during log phase growth for in vivo implantation. The resuspended cells were washed three times in phosphate buffered saline (PBS) before preparing the working dilution in PBS. FADU cells were diluted to 1×10^7 cells/mL and MDA-MB-231 cells were diluted to 5×10^7 cells/mL. Each mouse was injected subcutaneously in the right flank with 100 μL of the cellular suspension. Tumor growth was monitored until the tumors reached a target volume of at least 100 mm^3, at which point mice were randomly stratified into four treatment groups.
Tumor studies were performed as follows. Mice bearing FADU or MDA-231 tumors were pre-dosed with vehicle alone or compound 569 alone at 3, 6, and 10 mg/kg. Tumors were then irradiated with 10 Gy 45 min after vehicle or compound 569 administration or left unirradiated (vehicle and compound 569 at 10 mg/kg). Tumors were harvested 1 h post radiation.
Tissue homogenates for pharmacodynamic analyses were collected and processed as follows. Tumor tissues from FADU or MDA-MB-231 tumors were flash frozen in liquid nitrogen and pulverized on dry ice using a tissue pulverizer. A portion of the tumor powder was transferred into a microtube, followed by addition of 500 μL of RIPA buffer [[…], pH 8.0, 150 mM NaCl, 0.1% SDS, 0.5% sodium deoxycholate, 1% IGEPAL® CA-630 (Sigma, I8896)]. To 10 ml of RIPA buffer, 2 tablets each of Protease inhibitor and Phosphatase inhibitor (Roche, #04693159001 & #04906837001), 200 μL of 0.1 M PMSF and 160 μL of Aprotinin, (Sigma, A6279) were added. The suspension was homogenized on ice with a pellet pestle motor (KONTES) and incubated on ice for 30 minutes. Cell lysates were centrifuged at 13,200 rpm for 15 min at 4° C. and supernatants were transferred to a new tube and analyzed for protein concentration with a BCA kit (Pierce, 23227), followed by immunoblotting.

The target in the next assay is mTOR (Homo sapiens, UniProt P42345). The experiment in a line: mTOR Biochemical Assay (LanthaScreen TR-FRET). The note with it: ATP 3 μM. The procedure:
mTOR Kinase reactions were performed in a 10 μL volume in low-volume 384-well plates. Typically, PerkinElmer model 6008260 plates were used. The composition of the 1× kinase reaction buffer was: 50 mM HEPES pH 7.5, 0.01% Tween 20, 1 mM EGTA, 10 mM MnCl2, and 2 mM DTT. The solution of mTOR enzyme (ThermoFisher, #PR8683B; the final mTOR concentration: 0.5 μg/mL) was added, and the compounds were serially diluted to the final maximal concentration of 100 nM (3 fold series dilution, a total of 10 doses). GFP-4E-BP1 (the final concentration: 0.4 μM) and the ATP solution (the final ATP concentration: 3 μM) were added to the 384-well plate. The plate was incubated at 25° C. for 1 hour, and 10 μL of the EDTA solution (20 mM) and Tb-labeled anti-p4E-BP1 antibody (4 nM) in TR-FRET dilution buffer were added to each well. The plate was sealed, incubated 30 min at 25° C., and read on a plate reader configured for LanthaScreen™ TRFRET.

One may read the IC50 as the midpoint of a concentration-inhibition curve. Lower therefore signals greater potency in that assay. `CC(C)NCCOc1ncc(-c2cc3c4c(cnc3cc2F)N(C)C(=O)C42CCC2)cc1NS(C)(=O)=O` [Compound 569, N-(5-(7′-Fluoro-3′-methyl-2′-oxo-2′,3′-dihydrospiro[cyclobutane-1,1′-pyrrolo[2,3-c]quinolin]-8′-yl)-2-(2-(isopropylamino)ethoxy)pyridin-3-yl)methanesulfonamide]: the “phosphorylation of TBK1” value with TBK1 is “more potent activator of TBK1 phosphorylation than either of the single target kinase inhibitors”. Also, the pDNA-PK/DNA-PK worked out at 0.889 at DNA-PK (10 Gy, 3 mg/kg oral); 0.670 on DNA-PK (10 Gy, 6 mg/kg oral); 0.454 at DNA-PK (10 Gy, 10 mg/kg oral); 0.223 at DNA-PK (no radiation, 10 mg/kg oral). The compound further had a 50% inhibitory concentration (IC50) at mTOR above 100 nM.
